In patent publication US20110086923A1, “Method to increase oxygen in male and female sexual organs through the topical use of perfluorocarbons” (priority 2009, published 2011):

Test: Physical properties of F-tert-butylcyclohexane
Type: physicochemical
From the text: Oxycyte™ is a perfluorocarbon emulsion oxygen carrier. The active ingredient in Oxycyte™, perfluoro(tert-butylcyclohexane) (C10F20, MW-500), also known as F-tert-butylcyclohexane or “FtBu”, is a saturated alicyclic PFC.
Oxycyte™ can be used as a PFC composition in the methods and uses described herein. Physical properties of F-tert-butylcyclohexane are as follows: […]

Density: 1.97 g/mL
Kinematic Viscosity: 5.378 cP
lipophilicity: non-lipophilic
water solubility: non-water soluble
Vapor Pressure @ 25° C. (25° C.): 3.8 mmHg
Vapor Pressure @ 37° C. (37° C.): 4.4 mmHg
SMILES: FC(F)(F)C(C(F)(F)F)(C(F)(F)F)C1(F)C(F)(F)C(F)(F)C(F)(F)C(F)(F)C1(F)F [Perfluoro(tert-butylcyclohexane), perfluoro(tert-butylcyclohexane)]
